# According to BindingDB's records for PubMed 8093723 (Dainippon Pharmaceutical, 1993):
# Experiments:
# [1] = target: Histamine H1 receptor (Rattus norvegicus, UniProt P31390)
# [2] = target: D(2) dopamine receptor (Rattus norvegicus, UniProt P61169)
# [3] = target: Sigma non-opioid intracellular receptor 1 (Cavia porcellus, UniProt Q60492)
# [4] = target: Beta-2 adrenergic receptor (Rattus norvegicus, UniProt P10608)
# [5] = target: Gamma-aminobutyric acid (GABA) B receptor 1 (Rattus norvegicus, UniProt Q6MFX8)
# Sequence of Gamma-aminobutyric acid (GABA) B receptor 1 (Q6MFX8 whole entry): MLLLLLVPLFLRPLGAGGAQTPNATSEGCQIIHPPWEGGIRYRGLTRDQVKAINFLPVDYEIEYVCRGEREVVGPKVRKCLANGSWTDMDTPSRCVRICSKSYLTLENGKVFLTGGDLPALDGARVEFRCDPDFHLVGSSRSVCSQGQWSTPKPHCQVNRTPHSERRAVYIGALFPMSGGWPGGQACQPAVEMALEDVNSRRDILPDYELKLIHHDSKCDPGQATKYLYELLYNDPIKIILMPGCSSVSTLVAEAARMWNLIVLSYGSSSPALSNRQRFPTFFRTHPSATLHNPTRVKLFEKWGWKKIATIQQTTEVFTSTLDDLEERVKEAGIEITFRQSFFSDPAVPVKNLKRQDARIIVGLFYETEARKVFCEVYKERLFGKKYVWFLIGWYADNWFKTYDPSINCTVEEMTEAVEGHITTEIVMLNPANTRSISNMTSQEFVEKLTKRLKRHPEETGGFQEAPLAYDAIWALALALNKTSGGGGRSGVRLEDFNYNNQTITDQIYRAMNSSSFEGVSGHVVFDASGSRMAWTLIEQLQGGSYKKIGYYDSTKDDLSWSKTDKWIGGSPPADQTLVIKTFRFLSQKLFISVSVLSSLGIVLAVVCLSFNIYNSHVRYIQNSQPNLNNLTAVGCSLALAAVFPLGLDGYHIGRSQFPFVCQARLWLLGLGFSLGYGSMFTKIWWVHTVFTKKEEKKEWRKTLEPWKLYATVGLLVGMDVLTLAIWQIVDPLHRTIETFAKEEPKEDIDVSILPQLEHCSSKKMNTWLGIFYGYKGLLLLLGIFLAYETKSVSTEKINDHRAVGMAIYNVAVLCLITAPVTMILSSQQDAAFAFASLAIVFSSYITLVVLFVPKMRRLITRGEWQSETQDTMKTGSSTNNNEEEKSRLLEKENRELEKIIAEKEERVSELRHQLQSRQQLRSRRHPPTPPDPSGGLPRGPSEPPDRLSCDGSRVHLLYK
# [6] = target: Gamma-aminobutyric acid receptor subunit alpha-1 (Rattus norvegicus, UniProt P62813)
# Sequence of Gamma-aminobutyric acid receptor subunit alpha-1 (P62813 whole entry): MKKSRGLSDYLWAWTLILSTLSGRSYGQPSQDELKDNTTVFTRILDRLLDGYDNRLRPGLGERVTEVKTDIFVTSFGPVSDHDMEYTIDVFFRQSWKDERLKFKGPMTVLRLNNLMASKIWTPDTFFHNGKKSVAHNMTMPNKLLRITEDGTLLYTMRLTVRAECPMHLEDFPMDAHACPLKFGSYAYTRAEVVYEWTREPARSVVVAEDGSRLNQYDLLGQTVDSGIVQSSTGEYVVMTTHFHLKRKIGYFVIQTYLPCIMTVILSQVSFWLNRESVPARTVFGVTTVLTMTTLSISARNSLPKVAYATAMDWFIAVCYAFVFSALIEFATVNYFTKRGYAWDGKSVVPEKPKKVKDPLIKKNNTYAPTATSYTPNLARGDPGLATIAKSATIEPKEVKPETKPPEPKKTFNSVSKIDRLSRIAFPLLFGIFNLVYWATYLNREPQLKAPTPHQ
# [7] = target: D(1A) dopamine receptor (Rattus norvegicus, UniProt P18901)
# Sequence of D(1A) dopamine receptor (P18901 whole entry): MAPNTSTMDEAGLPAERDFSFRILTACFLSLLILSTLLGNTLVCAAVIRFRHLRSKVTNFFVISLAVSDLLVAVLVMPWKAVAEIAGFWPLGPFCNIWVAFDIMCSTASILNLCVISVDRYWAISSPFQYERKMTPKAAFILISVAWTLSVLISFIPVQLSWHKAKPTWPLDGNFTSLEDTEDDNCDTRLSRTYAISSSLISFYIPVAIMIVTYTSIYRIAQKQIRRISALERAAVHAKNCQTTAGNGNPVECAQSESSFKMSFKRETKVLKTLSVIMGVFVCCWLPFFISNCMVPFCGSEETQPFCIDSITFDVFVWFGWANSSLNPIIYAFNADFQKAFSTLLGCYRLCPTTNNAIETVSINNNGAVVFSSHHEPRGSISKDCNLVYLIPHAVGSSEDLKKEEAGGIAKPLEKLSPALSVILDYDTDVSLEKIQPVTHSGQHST
# [8] = target: T1, Muscarinic acetylcholine receptor M2 (Rattus norvegicus, UniProt P10980)
# T1 sequence (P10980 whole entry): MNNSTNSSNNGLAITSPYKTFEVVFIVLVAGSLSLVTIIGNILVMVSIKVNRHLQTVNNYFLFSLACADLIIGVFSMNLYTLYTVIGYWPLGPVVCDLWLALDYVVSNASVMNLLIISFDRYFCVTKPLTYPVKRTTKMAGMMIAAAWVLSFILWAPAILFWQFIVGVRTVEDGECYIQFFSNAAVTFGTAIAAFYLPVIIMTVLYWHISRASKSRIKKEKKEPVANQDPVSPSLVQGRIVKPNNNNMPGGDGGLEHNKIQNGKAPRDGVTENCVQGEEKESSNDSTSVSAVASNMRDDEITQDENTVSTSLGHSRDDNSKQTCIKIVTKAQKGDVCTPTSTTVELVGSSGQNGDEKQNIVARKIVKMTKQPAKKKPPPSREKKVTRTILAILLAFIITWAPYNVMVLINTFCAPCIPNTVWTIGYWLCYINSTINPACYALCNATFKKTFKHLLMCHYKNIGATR
# Sequence of Histamine H1 receptor (P31390 whole entry): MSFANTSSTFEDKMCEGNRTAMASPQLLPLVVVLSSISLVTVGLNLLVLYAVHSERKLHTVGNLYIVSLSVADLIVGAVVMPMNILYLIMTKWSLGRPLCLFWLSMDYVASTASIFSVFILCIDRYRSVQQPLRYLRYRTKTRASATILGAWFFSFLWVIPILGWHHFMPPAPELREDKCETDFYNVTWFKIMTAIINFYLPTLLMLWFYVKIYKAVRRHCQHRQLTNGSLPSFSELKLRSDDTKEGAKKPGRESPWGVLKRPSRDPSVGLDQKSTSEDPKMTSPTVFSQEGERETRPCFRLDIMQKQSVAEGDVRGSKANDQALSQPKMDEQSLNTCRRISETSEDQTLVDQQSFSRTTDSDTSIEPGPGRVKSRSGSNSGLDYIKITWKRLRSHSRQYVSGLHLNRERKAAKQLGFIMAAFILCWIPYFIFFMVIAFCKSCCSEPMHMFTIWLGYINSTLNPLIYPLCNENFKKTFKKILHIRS
# Sequence of Beta-2 adrenergic receptor (P10608 whole entry): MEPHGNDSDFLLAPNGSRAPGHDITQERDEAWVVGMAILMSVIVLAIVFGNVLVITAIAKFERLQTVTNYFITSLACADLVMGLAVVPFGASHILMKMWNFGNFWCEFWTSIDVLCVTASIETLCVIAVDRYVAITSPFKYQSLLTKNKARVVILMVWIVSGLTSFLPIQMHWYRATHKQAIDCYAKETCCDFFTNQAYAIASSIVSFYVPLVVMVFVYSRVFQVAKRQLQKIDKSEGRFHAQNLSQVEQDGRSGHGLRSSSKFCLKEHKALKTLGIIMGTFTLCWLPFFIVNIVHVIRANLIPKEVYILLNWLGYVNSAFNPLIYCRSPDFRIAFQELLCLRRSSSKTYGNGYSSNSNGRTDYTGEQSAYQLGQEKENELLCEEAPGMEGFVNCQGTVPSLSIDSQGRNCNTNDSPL
# Sequence of Sigma non-opioid intracellular receptor 1 (Q60492 whole entry): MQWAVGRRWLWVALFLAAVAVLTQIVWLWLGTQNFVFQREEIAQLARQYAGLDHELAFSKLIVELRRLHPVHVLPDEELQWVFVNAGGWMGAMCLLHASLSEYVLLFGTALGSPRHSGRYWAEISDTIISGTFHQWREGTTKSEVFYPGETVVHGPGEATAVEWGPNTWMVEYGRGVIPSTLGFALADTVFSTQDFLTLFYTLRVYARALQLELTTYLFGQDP
# Sequence of D(2) dopamine receptor (P61169 whole entry): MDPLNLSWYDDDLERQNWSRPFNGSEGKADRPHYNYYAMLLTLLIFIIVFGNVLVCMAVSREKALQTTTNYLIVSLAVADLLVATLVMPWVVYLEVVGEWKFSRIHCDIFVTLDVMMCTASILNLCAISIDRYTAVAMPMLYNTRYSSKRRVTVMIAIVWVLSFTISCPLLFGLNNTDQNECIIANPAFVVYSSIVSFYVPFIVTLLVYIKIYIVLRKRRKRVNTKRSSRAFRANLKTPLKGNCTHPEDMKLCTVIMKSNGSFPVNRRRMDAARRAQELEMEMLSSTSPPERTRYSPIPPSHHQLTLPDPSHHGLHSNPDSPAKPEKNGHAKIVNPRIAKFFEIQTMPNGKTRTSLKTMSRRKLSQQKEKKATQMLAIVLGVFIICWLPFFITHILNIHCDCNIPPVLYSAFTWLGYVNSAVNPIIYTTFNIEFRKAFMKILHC
smiles,measurement,setting,value
CCN1CCN(c2cc(-c3ccc(F)cc3)c3c(n2)CCCCCC3)CC1 [AD-5423],Ki,[1],3.01 µM
same,Ki,[2],0.0148 µM
same,Ki,[3],0.286 µM
same,Ki,[4],> 10 µM
same,Ki,[5],> 10 µM
same,Ki,[6],> 10 µM
same,Ki,[7],2.87 µM
same,Ki,[8],2.3 µM
